Data reported in paper PMC6017654, “Ionic Liquid-Promoted Synthesis of Novel Chromone-Pyrimidine Coupled Derivatives, Antimicrobial Analysis, Enzyme Assay, Docking Study and Toxicity Study” (Molecules : A Journal of Synthetic Chemistry and Natural …, 2018).
In brackets after ≈: the same amount, converted by molar mass.

Tests used:
[1] = tested on: Staphylococcus aureus (NCIM-2901); experiment: In vitro antibacterial activity (MIC100, two fold serial dilution, NCCLS); type: cell-based; conditions: for MIC: Staphylococcus aureus, NCIM2901, 24 h, read-out: MIC100, S. aureus NCIM-2901, average of three readings
Experimental: (§1) All the synthesized compounds 4(a–f) and 6(a–f) were screened for their in vitro antibacterial activity against Staphylococcus aureus (NCIM-2901), Escherichia coli 1411 (standard laboratory strains) and Escherichia coli SM1411 (an acrAB deficient derivative of 1411). Minimum inhibitory concentration (MIC100) values were determined using methods recommended by National Committee for Clinical Laboratory Standards (NCCLS). Dimethyl sulfoxide (DMSO) was used as solvent control.
(§2) All the synthesized compounds 4(a–f) and 6(a–f) were screened for their in vitro antibacterial activity against Staphylococcus aureus (NCIM-2901) and Escherichia coli 1411 (standard laboratory strains) and Escherichia coli SM1411 (an acrAB deficient derivative of 1411). Minimum inhibitory concentration (MIC100) values were determined using the method recommended by National Committee for Clinical Laboratory Standards (NCCLS). In vitro antibacterial activities of the synthesized compounds 4(a–f) and 6(a–f) were tested in Nutrient Broth (NB) for Bacteria by the two fold serial dilution method. Seeded broth (broth containing microbial spores) was prepared in NB from 24 h old bacterial cultures on nutrient agar (Hi-media) at 37 ± 1 °C. The bacterial suspension was adjusted with sterile saline to a concentration of […]. The synthesized compounds and standard drug D-cycloserine were prepared by two fold serial dilutions to obtain the required concentrations. The tubes were incubated in BOD incubators at 37 ± 1 °C for bacteria. The MICs were recorded by visual observations after 24 h (for bacteria) of incubation.

[2] = tested on: Escherichia coli SM1411 (an acrAB deficient derivative of 1411); experiment: as above; type: cell-based; conditions: 24 h, read-out: MIC100
Experimental: as §1, §2

Escherichia coli 1411 = experiment: as above; type: cell-based; conditions: Escherichia coli, 1411, 24 h, read-out: MIC100
Experimental: as §1, §2

Aspergillus fumigates = experiment: In vitro antifungal activity (MIC100, CLSI/NCCLS); type: cell-based; conditions: A. fum., average of three readings, read-out: MIC 100
Experimental: (§3) The newly synthesized derivatives 4(a–f) and 6(a–f) were screened for their in vitro antifungal activity against different yeast and filamentous fungal pathogens. Minimum inhibitory concentration (MIC100) values for in vitro antifungal activity were determined by the methods recommended by National Committee for Clinical Laboratory Standards (NCCLS). Miconazole was used as standard drug. Dimethyl sulfoxide (DMSO) was used as solvent control.
(§4) In vitro antifungal activity was determined as per CLSI (formerly, NCCLS) guidelines. […] The medium yeast nitrogen base was dissolved in phosphate buffer pH 7 and it was autoclaved at 110 °C for 10 min. With each set a growth control without the antifungal agent and solvent control DMSO were included. The fungal strains were freshly sub cultured on to Sabouraud dextrose agar (SDA) and incubated at 25 °C for 72 h. The fungal cells were suspended in sterile distilled water and diluted to get 10^5 cells/mL. Further, ten microlitres of the standardized suspension was inoculated onto the control plates and the media incorporated with the antifungal agents. The inoculated plates were incubated at 25 °C for 48 h. The readings were taken at the end of 48 h and 72 h. The MIC was the lowest concentration of drug preventing growth of macroscopically visible colonies on drug containing plates when there was visible growth on the drug free control plates.

A. flavus = experiment: In vitro antifungal activity (MIC100, CLSI/NCCLS); type: cell-based; conditions: Aspergillus flavus; A. fla.; average of three readings; read-out: MIC 100
Experimental: as §3, §4

Fusarium oxysporum = experiment: In vitro antifungal activity (MIC100, CLSI/NCCLS); type: cell-based; conditions: F. oxy., average of three readings, read-out: MIC 100
Experimental: as §3, §4

Candida glabrata = experiment: In vitro antifungal activity (MIC100, CLSI/NCCLS); type: cell-based; conditions: Nakaseomyces glabratus; C. glab.; average of three readings; read-out: MIC 100
Experimental: as §3, §4

Candida albicans = experiment: In vitro antifungal activity (MIC100, CLSI/NCCLS); type: cell-based; conditions: C. alb., average of three readings, read-out: MIC 100
Experimental: as §3, §4

Cryptococcus neoformans = experiment: In vitro antifungal activity (MIC100, CLSI/NCCLS); type: cell-based; conditions: C. neo., average of three readings, read-out: MIC 100
Experimental: as §3, §4

Aspergillus niger = experiment: In vitro antifungal activity (MIC100, CLSI/NCCLS); type: cell-based; conditions: A. nig., average of three readings, read-out: MIC 100
Experimental: as §3, §4

DdlB from E.coli = DdlB from E.coli (Escherichia coli, UniProt P07862); experiment: D-Alanine-D-alanine ligase (DdlB) enzyme inhibition, malachite green method; type: biochemical; conditions: 37 °C, 30 min incubation, 5% DMSO
Experimental: The key enzyme involved in the peptidoglycan biosynthesis is D-alanine-D-alanine ligase (Ddl), making it an important target for drug discovery. Inhibition of DdlB as an essential enzyme in either Gram-positive or Gram-negative organisms leads to the loss of cell shape and integrity followed by bacterial death. The synthesized derivatives 4(a–f) and 6(a–f) were tested for their inhibitory activity on DdlB from E.coli. The results are presented as IC50 values.
The D-Ala-adding activity of DdlB ligase was monitored by the detection of orthophosphate generated during the reaction based on the colorimetric malachite green method described by Walsh et al.. […] All the compounds were soluble in the assay mixture containing 5% DMSO. After 30 min of incubation, 100 µL Biomol reagent was added. After 5 min, absorbance was read at 650 nm. Residual activity was calculated with respect to a similar assay without inhibitor. To exclude possible non-specific (promiscuous) inhibitors, representative compounds 4(a–f) and 6(a–f) were also tested in the presence of Tween (0.003%), Triton X-114 (0.005%), and SDS (420 µM), as described by McGovern et al.. No significant differences were found when compared to measurements without detergents.

SMILES	MIC [1] [µg/mL]	MIC [2] [µg/mL]	MIC (Escherichia coli 1411) [µg/mL]	MIC (Aspergillus fumigates) [µg/mL]	MIC (A. flavus) [µg/mL]	MIC (Fusarium oxysporum) [µg/mL]	MIC (Candida glabrata) [µg/mL]	MIC (Candida albicans) [µg/mL]	MIC (Cryptococcus neoformans) [µg/mL]	MIC (Aspergillus niger) [µg/mL]	melting point [°C]	IC50 (DdlB from E.coli) [µM]	MIC100 ([1]; S. aureus NCIM-2901, 24 h, average of three readings) [µg/mL]
CCOC(=O)C1=C(C)NC(=O)NC1c1coc2ccc(F)cc2c1=O (stereo not shown) [Compound 4c, Ethyl 4-(6-fluoro-4-oxo-4H-chromen-3-yl)-6-methyl-2-oxo-1,2,3,4-tetrahydropyrimidine-5-carboxylate]	30 (≈ 86.6 µM)	34 (≈ 98.2 µM)	38 (≈ 110 µM)	62 (≈ 179 µM)	58 (≈ 167 µM)	58 (≈ 167 µM)	58 (≈ 167 µM)	52 (≈ 150 µM)	46 (≈ 133 µM)	44 (≈ 127 µM)	200 to 202	155	–
COc1ccc2occ(C3NC(=O)NC(C)=C3C(=O)NN)c(=O)c2c1 (stereo not shown) [Compound 6e, 4-(6-Methoxy-4-oxo-4H-chromen-3-yl)-6-methyl-2-oxo-1,2,3,4-tetrahydropyrimidine-5-carbohydrazide]	156 (≈ 453 µM)	58 (≈ 168 µM)	> 60	32 (≈ 92.9 µM)	16 (≈ 46.5 µM)	30 (≈ 87.1 µM)	30 (≈ 87.1 µM)	28 (≈ 81.3 µM)	16 (≈ 46.5 µM)	18 (≈ 52.3 µM)	208 to 210	315	–
CCOC(=O)C1=C(C)NC(=S)NC1c1coc2ccc(OC)cc2c1=O (stereo not shown) [Compound 4e, Ethyl 4-(6-methoxy-4-oxo-4H-chromen-3-yl)-6-methyl-2-thioxo-1,2,3,4-tetrahydropyrimidine-5-carboxylate]	> 200	> 60	58 (≈ 155 µM)	34 (≈ 90.8 µM)	18 (≈ 48.1 µM)	30 (≈ 80.1 µM)	32 (≈ 85.5 µM)	30 (≈ 80.1 µM)	20 (≈ 53.4 µM)	18 (≈ 48.1 µM)	222 to 224	335	–
CC1=C(C(=O)NN)C(c2coc3ccc(F)cc3c2=O)NC(=S)N1 (stereo not shown) [Compound 6d, 4-(6-Fluoro-4-oxo-4H-chromen-3-yl)-6-methyl-2-thioxo-1,2,3,4-tetrahydropyrimidine-5-carbohydrazide]	32 (≈ 91.9 µM)	18 (≈ 51.7 µM)	16 (≈ 45.9 µM)	52 (≈ 149 µM)	30 (≈ 86.1 µM)	44 (≈ 126 µM)	40 (≈ 115 µM)	44 (≈ 126 µM)	28 (≈ 80.4 µM)	28 (≈ 80.4 µM)	146 to 148	111	40 (≈ 115 µM)
CCOC(=O)C1=C(C)NC(=O)NC1c1coc2ccc(OC)cc2c1=O (stereo not shown) [Compound 4d, Ethyl 4-(6-methoxy-4-oxo-4H-chromen-3-yl)-6-methyl-2-oxo-1,2,3,4-tetrahydropyrimidine-5-carboxylate]	> 200	54 (≈ 151 µM)	55 (≈ 153 µM)	36 (≈ 100 µM)	20 (≈ 55.8 µM)	36 (≈ 100 µM)	38 (≈ 106 µM)	34 (≈ 94.9 µM)	24 (≈ 67 µM)	20 (≈ 55.8 µM)	230 to 232	330	–
